{"source": "patent US10610514B2", "about": "“Composition comprising compound inhibiting interactions of MBD2 and P66α for anti-metastasis and prevention and treatment of cancer disease” (Industry-University Cooperation Foundation Hanyang …, priority 2016, dated 2020)", "key": {"[1]": {"tested_on": "target gene expression of the CP2c transcription factor complex", "assay": "Luc reporter assay, GATA1 enhancer, 293T cells transduced with CBP complex protein overexpression vectors", "assay_type": "cell-based", "procedure": "Therefore, Luc reporter assay was carried out to analyze whether a decrease in the target gene expression of the CP2c transcription factor complex due to MBD2 or p66α overexpression is restored by the treatment with a compound for inhibiting the interaction between the MBD2 and p66α selected in the previous step (FIGS. 2A and 2B). Here, as a CP2c transcription factor target sequence that controls Luc reporter gene expression, a GATA1 enhancer was used, and 293T cells were transduced with various combinations of CBP complex protein overexpression vectors and then used for analysis."}, "[2]": {"tested_on": "MDA-MB-231, HCT116, MEL and HL60 cell lines", "assay": "In vitro cancer cell migration and invasion, Trans-well insert", "assay_type": "cell-based", "conditions": "10 μM, in comparison with controls, all cell lines", "procedure": "Accordingly, to confirm whether EMT and metastasis are inhibited by the treatment with the compounds of Formulas 1 and 2, in vitro cancer cell migration and invasion abilities were analyzed, and the result is shown in FIGS. 3A and 3B below."}, "[3]": {"tested_on": "HCT116 and MDA-MB-231 cell lines", "assay": "Western blotting of EMT-associated marker proteins", "assay_type": "cell-based", "conditions": "10 μM, 48 hours", "description": "Therefore, the compounds of Formulas 1 and 2 according to the present invention may be excellent leading materials in the development of therapeutic agents for metastasis."}, "[4]": {"tested_on": "various cancer cell lines", "assay": "MTT assay cell viability, all cancer cell lines", "assay_type": "cell-based", "procedure": "(§1) Lymphoid leukemia cell lines (Raji, Molt4, IM9, Jurkat, CCRF-CEM, and Daudi), leukemia cell lines (KCL22, MEL, THP-1, HL60, HEL, U937, KG-1, and K562), and solid tumor cell lines (HCT116 colorectal cancer cell line, BEAS2B lung epithelial cell line, 293T fetus kidney epithelial cell line, Hep3B liver cancer cell line, MCF7 and MDA-MB-231 breast cancer cell lines, MCF10A breast epithelial cell line, and U373MG brain tumor cell line) were treated with a compound at different concentrations (0, 1, 10, 100, 1,000, and 10,000 μM), cultured for 4 days, and subjected to MTT assay every 24 hours to measure cell viability. 48 hours after the treatment with the compound, a morphological change of the cells was observed, and cell images were taken. IC50 values caused by the treatment with each compound were calculated using the Graph Prism Pad 6 program."}, "[5]": {"tested_on": "leukemia cell lines (KCL22, MEL, THP-1, HL60, HEL, U937, KG-1, and K562)", "assay": "MTT assay cell viability, leukemia cell lines", "assay_type": "cell-based", "procedure": "as §1"}, "[6]": {"tested_on": "lymphoid leukemia cell lines (Raji, Molt4, IM9, Jurkat, CCRF-CEM, and Daudi)", "assay": "MTT assay cell viability, lymphoid leukemia cell lines", "assay_type": "cell-based", "conditions": "average", "procedure": "as §1"}, "[7]": {"tested_on": "solid tumor cell lines (HCT116, BEAS2B, 293T, Hep3B, MCF7, MDA-MB-231, MCF10A, U373MG)", "assay": "MTT assay cell viability, solid tumor cell lines", "assay_type": "cell-based", "conditions": "average", "procedure": "as §1"}, "MEL cell line [8]": {"tested_on": "MEL cell line", "assay": "Leukemia cell line-implanted animal model (MEL cell line intravenously injected into immunodeficient mice)", "assay_type": "in vivo", "description": "The result is shown in FIGS. 9A, 9B, 9C, 9D, 9E, 9F, 9G, 9H, 9I and 9J below.\nHowever, a white blood cell level was reduced due to the treatment with the compound at a slightly higher concentration, but the histological characteristics of the major organs as well as the overall hematological characteristics were normal (FIGS. 9D and 9E).\nMeanwhile, to confirm whether the compound of Formula 1 can treat tumors generated in the animal models, the MEL cell line was intravenously injected, after 7 days, the compound of Formula 1 was intravenously injected five times at intervals of three days, and then, on the 21th day, the mice were sacrificed to be subjected to analysis by the above-described method (FIG. 9F)."}, "MEL cell line [9]": {"tested_on": "MEL cell line", "assay": "Cell cycle analysis by FACS and karyotype analysis of MEL cells", "assay_type": "cell-based, murine"}, "MEL cells": {"tested_on": "MEL cells", "assay": "Western blotting of cell cycle- and apoptosis-associated marker proteins in MEL cells", "assay_type": "cell-based, murine", "description": "In addition, as a western blotting result to show the change in the expression of cell cycle-associated marker proteins according to the concentration and time of the treated compound of Formula 1, it was confirmed that all activities of cyclin/CDK controlling the checkpoints of the cell cycle were decreased. Therefore, referring to FIG. 13, it was seen that overall progression of the cell cycle was inhibited by the treatment with the compound of Formula 1, and aneuploidy and cell death were induced."}, "[10]": {"conditions": "dosing started 7 days after MEL injection, day 21"}, "[11]": {"conditions": "16.5 μM and 40 μM, western blotting over time"}}, "note": "Read-outs that look alike come from different tables or passages of the source.", "data": [{"compound": "CC(C)(C)OC(=O)N1CC[C@@H](CC(=O)CN)C1", "note": "[Formula 2]", "values": [{"measurement": "restoration of the inhibition of target gene expression by MBD2 overexpression", "setting": "[1]", "result": "restored"}, {"measurement": "restoration of the inhibition of target gene expression by p66α overexpression", "setting": "[1]", "result": "did not restore"}, {"measurement": "effect on migration and invasion abilities", "setting": "[2]", "result": "significant inhibitory effect"}, {"measurement": "expression of epithelial cell marker proteins (β-catenin, E-cadherin)", "setting": "[3]", "result": "decreased"}, {"measurement": "expression of mesenchymal cell marker proteins (Snail, slug, N-cadherin)", "setting": "[3]", "result": "significantly decreased"}, {"measurement": "IC50 values (in words)", "setting": "[4]; uniform in all cancer cell lines", "result": "slightly higher IC50 values"}, {"measurement": "growth and cell death of cell lines", "setting": "[4]; various cancer cell lines", "result": "effects of inhibiting the growth and inducing cell death"}]}, {"compound": "NCC(=O)NC[C@H]1COc2ccccc2O1", "note": "[Formula 1]", "values": [{"measurement": "restoration of the inhibition of target gene expression by MBD2 overexpression", "setting": "[1]", "result": "did not restore"}, {"measurement": "restoration of the inhibition of target gene expression by p66α overexpression", "setting": "[1]", "result": "restored"}, {"measurement": "effect on migration and invasion abilities", "setting": "[2]", "result": "significant inhibitory effect"}, {"measurement": "expression of epithelial cell marker proteins (β-catenin, E-cadherin)", "setting": "[3]", "result": "decreased"}, {"measurement": "expression of mesenchymal cell marker proteins (Snail, slug, N-cadherin)", "setting": "[3]", "result": "significantly decreased"}, {"measurement": "IC50", "setting": "[5]; average, read-out: IC50 average", "result": 50, "unit": "µM"}, {"measurement": "IC50", "setting": "[5]; range over cell lines, read-out: IC50 values", "result": "6 to 218", "unit": "µM"}, {"measurement": "IC50", "setting": "[6]", "result": 213, "unit": "µM"}, {"measurement": "IC50", "setting": "[7]", "result": 1780, "unit": "µM"}, {"measurement": "side effects in normal tissue/blood", "setting": "MEL cell line [8]; MEL-implanted mice", "result": "no side effects"}, {"measurement": "histological characteristics of the major organs and overall hematological characteristics", "setting": "MEL cell line [8]; dosing from MEL injection, day 16", "result": "normal"}, {"measurement": "histological characteristics of the major organs and overall hematological characteristics", "setting": "MEL cell line [8]; [10]", "result": "normal"}, {"measurement": "tumor cells in the blood, spleen and liver", "setting": "MEL cell line [8]; [10]", "result": "no tumor cells"}, {"measurement": "splenomegaly caused by the MEL cells", "setting": "MEL cell line [8]; dosing started 7 days after MEL injection, i.v. five times at intervals of three days, day 21, concentration-dependent", "result": "disappeared"}, {"measurement": "splenomegaly caused by the MEL cells", "setting": "MEL cell line [8]; i.v. 12.2, 24.4, 48.8 μg/Kg five times at intervals of three days from MEL injection, day 16, concentration-dependent", "result": "disappeared"}, {"measurement": "tumor cells in the blood, spleen and liver", "setting": "MEL cell line [8]; i.v. five times at intervals of three days from MEL injection, day 16", "result": "no tumor cells"}, {"measurement": "white blood cell level", "setting": "MEL cell line [8]; slightly higher concentration, day 16", "result": "reduced"}, {"measurement": "G0/G1 group", "setting": "MEL cell line [9]; FACS", "result": "reduction"}, {"measurement": "G2/M group", "setting": "MEL cell line [9]; FACS", "result": "increase"}, {"measurement": "aneuploidy cell group", "setting": "MEL cell line [9]; FACS", "result": "significant increases"}, {"measurement": "subG1 (cell group dying by apoptosis)", "setting": "MEL cell line [9]; FACS", "result": "significant increases"}, {"measurement": "aneuploidy", "setting": "MEL cell line [9]; FACS after synchronization at G1/S by thymidine double block", "result": "remarkably induced"}, {"measurement": "chromosomes (karyotype analysis)", "setting": "MEL cell line [9]; karyotype analysis", "result": "abnormally increased"}, {"measurement": "apoptosis-associated caspases", "setting": "MEL cells; [11]", "result": "activated"}, {"measurement": "expression of the apoptosis inhibition marker", "setting": "MEL cells; [11]", "result": "decreased"}, {"measurement": "expression of the apoptosis promotion marker", "setting": "MEL cells; [11]", "result": "increased"}, {"measurement": "activities of cyclin/CDK controlling the checkpoints of the cell cycle", "setting": "MEL cells; western blotting, by concentration and time", "result": "decreased"}]}]}
